Experiment [1] addresses receptor tyrosine kinase c-Met (Homo sapiens, UniProt P08581). In words: In vitro c-Met kinase inhibitory activity. The format is biochemical. Conditions: two values per compound; for inhibition at 0.01 µM / inhibition at 0.1 µM / inhibition at 0.001 µM: read-out: c-Met Inhibitory rate (%). An excerpt: Experimental Example 3: Study of In Vitro c-Met Kinase Inhibitory Activity
Since the screening results of 369 kinase profiles of compound DC621044 has shown that the compound has a certain inhibitory activity on c-Met. We further screened some compounds for their inhibitory activity on c-Met kinase.

The test system of experiment [2] is BaF3/TEL-AXL cells. Nature of the experiment: Proliferation of BaF3/TEL-AXL cells. The format is cell-based. Conditions: two values per compound; for inhibition at 0.01 µM / inhibition at 0.1 µM / inhibition at 0.001 µM: BaF3/TEL-AXL, read-out: BaF3/TEL-AXL proliferation Inhibitory rate (%). An excerpt: Experimental Example 4: Effect of the Compound on the Proliferation Effect of BaF3/TEL-AXL Cells
Based on the above-mentioned enzyme activity research results, we further explored the effect of the compound on cell proliferation mediated by receptor tyrosine kinase AXL.

“And” between values parts separate entries of the source, which are not always exact repeats. Equal entries are not always repeated.

Chain of receptor tyrosine kinase c-Met (P08581 25-1390): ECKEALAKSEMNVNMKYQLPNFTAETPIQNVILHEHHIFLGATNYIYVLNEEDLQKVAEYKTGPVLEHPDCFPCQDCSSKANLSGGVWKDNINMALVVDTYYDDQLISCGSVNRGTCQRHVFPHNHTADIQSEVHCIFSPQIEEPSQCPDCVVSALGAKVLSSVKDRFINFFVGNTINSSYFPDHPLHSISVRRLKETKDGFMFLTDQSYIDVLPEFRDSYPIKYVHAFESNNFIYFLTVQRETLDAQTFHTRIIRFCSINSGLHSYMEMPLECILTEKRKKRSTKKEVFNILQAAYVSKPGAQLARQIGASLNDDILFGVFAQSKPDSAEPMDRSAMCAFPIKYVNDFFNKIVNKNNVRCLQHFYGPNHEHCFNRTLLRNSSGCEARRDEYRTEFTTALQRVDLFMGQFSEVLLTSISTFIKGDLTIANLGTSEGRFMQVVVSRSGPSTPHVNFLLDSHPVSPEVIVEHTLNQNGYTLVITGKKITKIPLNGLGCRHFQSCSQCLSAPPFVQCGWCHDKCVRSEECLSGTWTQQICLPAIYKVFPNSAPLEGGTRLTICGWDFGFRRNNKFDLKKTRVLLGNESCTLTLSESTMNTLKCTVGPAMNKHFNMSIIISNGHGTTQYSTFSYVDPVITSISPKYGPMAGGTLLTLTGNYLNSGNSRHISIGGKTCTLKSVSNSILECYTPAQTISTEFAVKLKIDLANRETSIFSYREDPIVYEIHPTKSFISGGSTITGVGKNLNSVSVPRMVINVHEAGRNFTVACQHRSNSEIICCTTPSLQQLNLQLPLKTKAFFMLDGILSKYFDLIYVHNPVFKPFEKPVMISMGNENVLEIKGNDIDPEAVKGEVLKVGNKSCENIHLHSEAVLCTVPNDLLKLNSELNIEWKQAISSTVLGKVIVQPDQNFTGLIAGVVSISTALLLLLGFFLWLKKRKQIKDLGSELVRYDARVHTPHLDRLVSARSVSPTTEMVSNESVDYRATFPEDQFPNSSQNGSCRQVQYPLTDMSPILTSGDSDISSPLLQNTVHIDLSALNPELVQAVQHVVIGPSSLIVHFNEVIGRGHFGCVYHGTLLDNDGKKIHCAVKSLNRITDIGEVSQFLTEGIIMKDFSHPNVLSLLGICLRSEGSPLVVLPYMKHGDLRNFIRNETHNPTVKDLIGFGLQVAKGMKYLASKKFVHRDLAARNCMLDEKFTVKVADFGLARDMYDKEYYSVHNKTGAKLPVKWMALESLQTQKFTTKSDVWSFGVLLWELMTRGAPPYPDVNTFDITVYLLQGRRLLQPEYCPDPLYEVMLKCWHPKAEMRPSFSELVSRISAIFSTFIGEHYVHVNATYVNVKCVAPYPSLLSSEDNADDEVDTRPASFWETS

Consider `COc1cc2nccc(Oc3ccc(NC(=O)c4c5n(n(-c6ccccc6)c4=O)CCCC5)cc3F)c2cc1OC` [DC621001, N-(4-((6,7-dimethoxyquinoline-4-yl)oxy)-3-fluorophenyl)-2-oxo-1-phenyl-1,2,4,5,6,7-hexahydropyrazolo[1,5-a]pyridine-3-formamide], for which the “c-Met Inhibitory rate (%)” value was 51.7% and 72.4% in experiment [1] (1 nM, 0.001 µM); 97.6% in experiment [1] (10 nM, 0.01 µM); 100% in experiment [1] (100 nM, 0.1 µM). The inhibition at 0.01 µM amounted to 84.7% in experiment [1] (10 nM) and 54.9% in experiment [2] (10 nM). In addition, the figures for the inhibition at 0.1 µM in experiment [1] (100 nM) and in experiment [2] (100 nM) were 92% and 82%, respectively. Besides, the “BaF3/TEL-AXL proliferation Inhibitory rate (%)” value in experiment [2] (10 nM, 0.01 µM) came to 59.1%; in experiment [2] (100 nM, 0.1 µM), 71.3%.

Consider `COc1cc2ncnc(Oc3ccc(NC(=O)c4c5n(n(-c6ccccc6)c4=O)CCCC5)cc3F)c2cc1OC` [DC621011, N-(4-((6,7-dimethoxyquinazoline-4-yl)oxy)-3-fluorophenyl)-2-oxo-1-phenyl-1,2,4,5,6,7-hexahydropyrazolo[1,5-a]pyridine-3-formamide], for which the “c-Met Inhibitory rate (%)” value was determined as 89.2% in experiment [1] (10 nM, 0.01 µM) and 100% in experiment [1] (100 nM, 0.1 µM). Besides, the inhibition at 0.01 µM was found to be 74.4% in experiment [1] (10 nM) and 60.5% in experiment [2] (10 nM). The results for the inhibition at 0.1 µM in experiment [1] (100 nM) and in experiment [2] (100 nM) were 86.6% and 84.8%, respectively. Besides, the “BaF3/TEL-AXL proliferation Inhibitory rate (%)” value came out at 56.1% in experiment [2] (10 nM, 0.01 µM) and 83.9% in experiment [2] (100 nM, 0.1 µM).

As to `COc1cc2ncnc(Oc3ccc(NC(=O)c4c5n(n(-c6cc(F)ccc6F)c4=O)CCCC5)cc3)c2cc1OC` [DC621022, 1-(2,5-difluorophenyl)-N-(4-((6,7-dimethoxyquinazoline-4-yl)oxy)phenyl)-2-oxo-1,2,4,5,6,7-hexahydropyrazolo[1,5-a]pyridine-3-formamide], the “c-Met Inhibitory rate (%)” value in experiment [1] (1 nM, 0.001 µM) is 51.1%; in experiment [1] (10 nM, 0.01 µM), 57.0%; in experiment [1] (100 nM, 0.1 µM) it was 96.5%. Further, the values for the inhibition at 0.001 µM in experiment [1] (1 nM) and in experiment [2] (1 nM) were 35.4% and 66.3%, respectively. Besides, the inhibition at 0.01 µM is 41.7% in experiment [1] (10 nM) and 71.8% in experiment [2] (10 nM). The inhibition at 0.1 µM in experiment [1] (100 nM) is 81.9%; in experiment [2] (100 nM) it was 83.2%. The “BaF3/TEL-AXL proliferation Inhibitory rate (%)” value in experiment [2] (1 nM, 0.001 µM) is on record as 48.3%; in experiment [2] (10 nM, 0.01 µM), 58.0%; in experiment [2] (100 nM, 0.1 µM), 80.9%.

With `COc1cc2ncnc(Oc3ccc(NC(=O)c4c5n(n(-c6cc(F)ccc6F)c4=O)CCCC5)cc3F)c2cc1OC` [DC621023, 1-(2,5-difluorophenyl)-N-(4-((6,7-dimethoxyquinazoline-4-yl)oxy)-3-fluorophenyl)-2-oxo-1,2,4,5,6,7-hexahydropyrazolo[1,5-a]pyridine-3-formamide], the “c-Met Inhibitory rate (%)” value in experiment [1] (1 nM, 0.001 µM) is recorded as 60.9%; in experiment [1] (10 nM, 0.01 µM) it was 92.3%; in experiment [1] (100 nM, 0.1 µM) it was 100%. Further, the inhibition at 0.001 µM in experiment [1] (1 nM) came to 58.9%. The results for the inhibition at 0.01 µM in experiment [1] (10 nM) and in experiment [2] (10 nM) were 80.9% and 66.5%, respectively. The values for the inhibition at 0.1 µM in experiment [1] (100 nM) and in experiment [2] (100 nM) were 99.2% and 76.8%, respectively. Also, the “BaF3/TEL-AXL proliferation Inhibitory rate (%)” value in experiment [2] (1 nM, 0.001 µM) was 62.2% and 41.4%; in experiment [2] (10 nM, 0.01 µM), 67.6%; in experiment [2] (100 nM, 0.1 µM) it was 65.0%.

For the compound `COc1cc2ncnc(Oc3ccc(NC(=O)c4c5n(n(-c6ccc(F)cc6)c4=O)CCCC5)c(F)c3)c2cc1OC` [DC621059, N-(4-((6,7-dimethoxyquinazoline-4-yl)oxy)-2-fluorophenyl)-1-(4-fluorophenyl)-2-oxo-1,2,4,5,6,7-hexahydropyrazolo[1,5-a]pyridine-3-formamide], the “BaF3/TEL-AXL proliferation Inhibitory rate (%)” value in experiment [2] (1 nM, 0.001 µM) worked out at 78.3%; in experiment [2] (10 nM, 0.01 µM), 82.7%; in experiment [2] (100 nM, 0.1 µM) it was 84.2%. Further, in experiment [2] (1 nM), the inhibition at 0.001 µM turned out to be 68.4%. Moreover, the inhibition at 0.01 µM in experiment [2] (10 nM) was determined as 71.4%. The inhibition at 0.1 µM in experiment [2] (100 nM) is 83.7%.

The values above are taken from patent US12497394B2, “Fused-cyclic pyrazolone formamide compound and preparation method therefor, pharmaceutical composition and use thereof” (SHANGHAI INSTITUTE OF MATERIA MEDICA, CHINESE ACADEMY OF …, priority 2018, dated 2025).
